# According to patent publication US7951789B2 (priority 2006, dated 2011):
# Read-outs that look alike come from different tables or passages of the source.
# Columns and labels:
# [1] = system: HCV Conl subgenomic replicon (GS4.1 cells); assay: HCV replicon assay (NS4A ELISA, HCV ELISA 2); assay type: cell-based; conditions: Hepatitis C virus
# Procedure: (§1) Huh-7 cells containing HCV Conl subgenomic replicon (GS4.1 cells), (C. Seeger; Fox Chase University, Philadelphia, Pa., USA), are grown in Dulbecco's Modified Eagle Medium (DMEM) supplemented with 10% fetal bovine serum (FBS), 2 mM L-glutamine, 110 mg/L sodium pyruvate, 1×non-essential amino acids, 100 U/mL penicillin-streptomycin and 0.5 mg/mL G418 (Invitrogen). For dose-response testing, the cells are seeded in 96-well plates at 7.5×10^3 cells/well in a volume of 50 μL and incubated at 37° C./5% CO2. Three hours after plating, 50 μL of ten 2-fold serial dilutions of compounds (highest concentration, 75 μM) are added and cell cultures were incubated at 37° C./5% CO2 in the presence of 0.5% DMSO. Alternatively, compounds are tested at a single concentration of 15 μM. In all cases, Huh-7 cells lacking the HCV replicon served as negative control. The cells are incubated in the presence of compounds for 72 hours after which they were monitored for expression of the NS4A protein by enzyme-linked immunosorbent assay (ELISA). For this, the plates were then fixed for 1 min with 1:1 acetone:methanol, washed twice with phosphate-buffered saline (PBS), 0.1% Tween 20, blocked for 1 hour at room temperature with TNE buffer containing 10% FBS and then incubated for 2 h at 37° C. with the anti-NS4A mouse monoclonal antibody A-236 (ViroGen) diluted in the same buffer. After washing three times with PBS, 0.1% Tween 20, the cells are incubated 1 hour at 37° C. with anti-mouse immunoglobulin G-peroxidase conjugate in TNE, 10% FBS. After washing as described above, the reaction is developed with O-phenylenediamine (Zymed). The reaction is stopped after 30 minutes with […] and the absorbance is read at 492 nm using a Sunrise Tecan spectrophotometer. EC50 values are determined from the % inhibition versus concentration data using a sigmoidal non-linear regression analysis based on four parameters with Tecan Magellan software. […] For cytotoxicity evaluation, GS4.1 cells are treated with compounds as described above and cellular viability was monitored using a Cell Titer 96 AQueous One Solution Cell Proliferation Assay (Promega). CC50 values are determined from the % cytotoxicity versus concentration data with Tecan Magellan software as described above.
# [2] = Cytotoxicity evaluation in GS4.1 cells (Cell Titer 96 AQueous One Solution); assay type: cell-based; conditions: human; for CC50: 72 hours
# Procedure: as §1
# [3] = 72 h, read-out: HCV ELISA 2 EC50 (μM)
# [4] = GS4.1 cells, 72 hours, NS4A ELISA, read-out: HCV ELISA 2 EC50
SMILES,"EC50 [1, 3] [µM]",CC50 at 72 h [2] [µM],"EC50 [1, 4] [µM]",CC50 [2] [µM]
"CC(C)(CO)C(=O)SCCOP(=O)(OC[C@H]1O[C@@H](n2ccc(N)nc2=O)[C@](C)(O)[C@@H]1O)N1CCCCC1 (mixture of isomers) [Example B353, Hydroxy-tBuSATE N-piperidinephosphosphoramidate Derivative of 2′-C-methyl-cytidine]",> 10,> 75,–,–
"C[C@@]1(O)[C@H](O)[C@@H](CO)O[C@H]1n1cnc2c(=O)[nH]c(N)nc21 [A844 (NM 108), 2′-C-methylguanosine, reference compound]",–,–,1 to 10,> 75
"C[C@@]1(O)[C@H](O)[C@@H](CO)O[C@H]1n1ccc(N)nc1=O [A634 (NM107), 2′methyl cytidine, reference compound]",–,–,1 to 10,> 75
"C[C@@]1(O)[C@H](O)[C@@H](CO)O[C@H]1n1cc(F)c2c(N)ncnc21 [Example E810, 2′-C-methyl-7-deaza-7-fluoro-adenosine, reference compound]",–,–,< 1,> 75
"CC(C)(CO)C(=O)SCCOP(=O)(NCc1ccc(C(F)(F)F)cc1)OC[C@H]1O[C@@H](n2cnc3c(=O)[nH]c(N)nc32)[C@](C)(O)[C@@H]1O (stereo in doubt) [Example B242, O-(Hydroxy-tert-butyl-S-acyl-2-thioethyl)-2′-C-methylguanosin-5′-yl-N-(4-trifluoromethyl)-benzylaminyl Phosphate]",–,–,< 1,> 75
"C[C@@]1(O)[C@H](O)[C@@H](CO)O[C@H]1n1cnc2c(Cl)ncnc21 [Example A849, 9-[2-C-methyl-β-ribofuranosyl]-6-chloropurine, reference compound]",–,–,< 1,> 75
"CC(=O)O[C@@H]1[C@@H](COP(=O)(NCc2ccccc2)OCCSC(=O)C(C)(C)CO)O[C@@H](n2ccc(N)nc2=O)[C@]1(C)OC(C)=O (stereo in doubt) [Example B390, Hydroxy-tBuSATE N-benzylphosphoramidate Derivative of 2′-C-methyl-2′,3′-di-O-acetyl-cytidine]",–,–,> 10,> 75
"CCCCCCCCN(C)P(=O)(OCCSC(=O)C(C)(C)CO)OC[C@H]1O[C@@H](n2ccc(N)nc2=O)[C@](C)(O)[C@@H]1O (stereo in doubt) [Example B204, Hydroxy-tBuSATE N-(n-methyl-n-octyl-amine)phosphosphoramidate Derivative of 2′-C-methylcytidine]",1 to 10,> 75,–,–
"CC(C)(CO)C(=O)SCCOP(=O)(NCc1ccccc1C(F)(F)F)OC[C@H]1O[C@@H](n2ccc(N)nc2=O)[C@](C)(O)[C@@H]1O (stereo in doubt) [Example B187, Hydroxy-tBuSATE N-(2-(trifluoromethyl)benzyl)phosphosphoramidate Derivative of 2′-C-methylcytidine]",–,–,1 to 10,> 75
"C[C@@]1(O)[C@H](O)[C@@H](CO)O[C@H]1n1cnc2c(=O)[nH]cnc21 [Example A608, 2′-C-methylinosine, reference compound]",–,–,> 10,> 75
"CC(C)(CO)C(=O)SCCOP(=O)(NCc1ccc(C(F)(F)F)cc1)OC[C@H]1O[C@@H](n2ccc(N)nc2=O)[C@](C)(O)[C@@H]1O (stereo in doubt) [Example B399, Hydroxy-tBuSATE N-(4-(trifluoromethyl)benzyl)phosphosphoramidate Derivative of 2′-C-methylcytidine]",–,–,1 to 10,> 75
"CCCCN(CCCC)P(=O)(OCCSC(=O)C(C)(C)CO)OC[C@H]1O[C@@H](n2ccc(N)nc2=O)[C@](C)(O)[C@@H]1O (mixture of isomers) [Example B244, Hydroxy-tBuSATE N,N-(dibutylamine)phosphoramidate Derivative of 2′-C-methylcytidine]",> 10,> 75,–,–
"CC(C)(CO)C(=O)SCCOP(=O)(NCc1ccccc1)OC[C@H]1O[C@@H](n2cnc3c(Cl)ncnc32)[C@](C)(O)[C@@H]1O (stereo partly drawn) [Example B396, Hydroxy-tBuSATE N-benzylphosphoramidate Derivative of 9-[2-C-methyl-β-ribofuranosyl]-6-chloropurine]",–,–,< 1,≤ 75
"C[C@@]1(O)[C@H](O)[C@@H](CO)O[C@H]1n1ccc(=O)[nH]c1=O [C809 (NM106), 2′-C-methyluridine, reference compound]",–,–,> 10,> 75
"CC(C)(CO)C(=O)SCCOP(=O)(NCc1ccccc1)OC[C@H]1O[C@@H](n2cc(F)c3c(N)ncnc32)[C@](C)(O)[C@@H]1O (mixture of isomers) [Example B436, Hydroxy-tBuSATE N-benzylphosphoramidate Derivative of 2′-C-methyl-7-deaza-7-fluoro-adenosine]",–,–,1 to 10,> 75
"CC(C)C(N)C(=O)O[C@@H]1[C@@H](COP(=O)(NCc2ccccc2)OCCSC(=O)C(C)(C)CO)O[C@@H](n2ccc(N)nc2=O)[C@]1(C)O (stereo partly drawn) [Example B234, Hydroxy-tBuSATE N-benzylphosphoramidate Derivative of 3′-O-L-valinyl-2′-C-methylcytidine]",–,–,1 to 10,> 75
C#C[C@@]1(F)[C@H](O)[C@@H](CO)O[C@H]1n1cnc2c(=O)[nH]c(N)nc21 [Example D961],–,–,> 10,> 75
"C#C[C@@]1(F)[C@H](O)[C@@H](COP(=O)(NCc2ccccc2)OCCSC(=O)C(C)(C)CO)O[C@H]1n1cnc2c(=O)[nH]c(N)nc21 (stereo in doubt) [Example B503, N-Benzylaminyl-{9-[(2R)2-deoxy-2-fluoro-2-C-ethynyl-β-D-erythro-furanosyl]-guanin}-5′-yl-O-(hydroxy-tert-butyl-S-acyl-2-thioethyl) Phosphate]",–,–,1 to 10,> 75
"CC(C)(CO)C(=O)SCCOP(=O)(NCc1ccccc1)OC[C@H]1O[C@@H](n2ccc(=O)[nH]c2=O)[C@](C)(O)[C@@H]1O (stereo partly shown) [Example B229, Hydroxy-tBuSATE N-benzylphosphoramidate Derivative of 2′-C-methyluridine]",–,–,1 to 10,> 75
"C[C@@]1(O)[C@H](O)[C@@H](CO)O[C@H]1n1cnc2c(N)ncnc21 [A374 (NM80), 2′-C-methyladenosine, reference compound]",–,–,< 1,≤ 75
"CC(C)(CO)C(=O)SCCOP(=O)(NC1CCCCC1)OC[C@H]1O[C@@H](n2ccc(N)nc2=O)[C@](C)(O)[C@@H]1O (stereo in doubt) [Example B354, Hydroxy-tBuSATE N-cyclohexylaminephosphosphoramidate Derivative of 2′-C-methyl-cytidine]",–,–,1 to 10,> 75
"CC(=O)Nc1ccn([C@@H]2O[C@H](COP(=O)(NCc3ccccc3)OCCSC(=O)C(C)(C)CO)[C@@H](O)[C@@]2(C)O)c(=O)n1 (stereo in doubt) [Example B183, Hydroxy-tBuSATE N-benzylphosphoramidate Derivative of 2′-C-methyl-NH-4-acetyl-cytidine]",–,–,> 10,> 75
"CC(C)(CO)C(=O)SCCOP(=O)(NCc1ccccc1)OC[C@H]1O[C@@H](n2cnc3c(=O)[nH]c(N)nc32)[C@]2(C)OC(=O)O[C@H]12 (stereo in doubt) [Example B307, N-Benzylaminyl-O-(hydroxy-tert-butyl-S-acyl-2-thioethyl)-2′,3′-O-carbonate-2′-C-methylguanosin-5′-yl phosphate]",–,–,< 1,> 75
"CC(C)(CO)C(=O)SCCOP(=O)(NCc1ccccc1)OC[C@H]1O[C@@H](n2cnc3c(N)ncnc32)[C@](C)(O)[C@@H]1O (mixture of isomers) [Example B263, Hydroxy-tBuSATE N-benzylphosphoramidate Derivative of 2′-C-methyladenosine]",–,–,1 to 10,> 75
"CC(C)(CO)C(=O)SCCOP(=O)(NCc1ccccc1)OC[C@H]1O[C@@H](n2cnc3c(=O)[nH]cnc32)[C@](C)(O)[C@@H]1O (mixture of isomers) [Example B186, Hydroxy-tBuSATE N-benzylphosphoramidate Derivative of 2′-C-methylinosine]",–,–,1 to 10,> 75
"CC(C)(CO)C(=O)SCCOP(=O)(OC[C@H]1O[C@@H](n2ccc(N)nc2=O)[C@](C)(O)[C@@H]1O)N1CCOCC1 (mixture of isomers) [Example B391, Hydroxy-tBuSATE N-morpholinophosphosphoramidate Derivative of 2′-C-methylcytidine]",> 10,> 75,–,–
